These results are taken from patent US9657015B2, “Substituted bicyclic dihydropyrimidinones and their use as inhibitors of neutrophil elastase activity” (Boehringer Ingelheim International GmbH, priority 2014, dated 2017).

≈ marks a conversion by molar mass, not a printed value.

Data set [1] can be described thus: Metabolic stability with human liver microsomes. The following applies: pH 7.6; pooled human liver microsomes, 37° C., 1 μM test compound, 1 mg/ml microsomal protein, NADPH; read-out: t1/2 INVITRO. In kind it is in vitro ADME.
Data set [2] in a line: Aqueous solubility (High Throughput Method). The format is physicochemical. The note with it: McIlvaine buffer pH 6.8, 2.5% DMSO, 24 h shaking; for solubility at 24 h: McIlvaine buffer pH 6.8 with 2.5% DMSO, aqueous buffer, kinetic from dmso stock. The method, then:
Assay for Determination of Aqueous Solubility (“High Throughput Method”)
Starting from a 10 mM DMSO stock solution, aliquots are diluted with acetonitrile/water (1/1) and McIlvaine buffer pH 6.8, respectively. After 24 h of shaking, the solutions or suspensions are filtered and analyzed by LC-UV. The amount dissolved in buffer is compared to the amount dissolved in the acetonitrile/water (1/1) solution. Solubility is measured from 0.001 to 0.125 mg/ml at a DMSO concentration of 2.5%. If more than 90% of the compound is dissolved in buffer, the value is marked with “>”.

A further data set addresses cytochrome P450 2C9 (Homo sapiens (Human), UniProt P11712). Briefly: Cytochrome P450 2C9 inhibition. The format is in vitro ADME. The following applies: human liver microsomes, Diclofenac hydroxylation, 37° C. From the text: Assay for Determination of Cytochrome P450 2C9 Inhibition
For orientation: Liver microsomes are vesicles of endoplasmic reticulum, rich in cytochrome P450 enzymes.

The target of the next data set is cytochrome P450 2C19 (Homo sapiens (Human), UniProt P33261). Briefly: Cytochrome P450 2C19 inhibition. In kind it is in vitro ADME. The following applies: human liver microsomes, (S)-Mephenytoin hydroxylation, 37° C. From the text:
Assay for Determination of Cytochrome P450 2C19 Inhibition

Data set [3] is described as follows: Aqueous solubility (Shaked Flask Method). In kind it is physicochemical. The note with it: aqueous buffer, thermodynamic from solid, pH 6.8 (McIlvaine buffer). The method, then: Assay for Determination of Aqueous Solubility (“Shaked Flask Method”)
Saturated solutions are prepared in well plates by adding an appropriate volume of selected aqueous media (typically in the range of 0.25-1.5 ml) into each well which contains a known quantity of solid drug substance (typically in the range 0.5-5.0 mg). The wells are shaken or stirred for a predefined time period (typically in a range of 2-24 h) and then filtered using appropriate filter membranes (typically PTFE-filters with 0.45 μm pore size). Filter absorption is avoided by discarding the first few drops of filtrate. The amount of dissolved drug substance is determined by UV spectroscopy or by HPLC with UV-detection. In addition, the pH of the aqueous saturated solution is measured using a glass-electrode pH meter.

The nature of data set [4]: Drug transport across human Caco-2 cells. In kind it is in vitro ADME. The note with it: human, Caco-2 monolayers, pH 7.2, 37° C.; for Papp A→B at 10 µM: apical-to-basal, read-out: PEAB; for Papp B→A at 10 µM: basal-to-apical, read-out: PEBA. An excerpt: (§1) Assay for Determination of Drug Transport Across Human Caco-2 Cells
(§2) The assay provides information on the potential of a compound to pass the cell membrane, on the extent of oral absorption as well as on whether the compound is actively transported by uptake and/or efflux transporters. For the measurement of permeability across polarized, confluent human cancer colon carcinoma cells 2 (Caco-2) cell monolayers grown on permeable filter supports are used as the in vitro absorption model.
(§3) Apparent permeability coefficients (PE) of the compounds across the Caco-2 monolayers are measured (pH 7.2, 37° C.) in apical-to-basal (AB) (absorptive) and basal-to-apical (BA) (secretory) transport direction. AB permeability (PEAB) represents drug absorption from the intestine into the blood and BA permeability (PEBA) drug secretion from the blood back into the intestine via both passive permeability as well as active transport mechanisms mediated by efflux and uptake transporters that are expressed on the Caco-2 cells. The compounds are assigned to permeability/absorption classes by comparison of the AB permeabilities with the AB permeabilities of reference compounds with known in vitro permeability and oral absorption in the human. Identical or similar permeabilities in both transport directions indicate passive permeation, vectorial permeability points to additional active transport mechanisms. […] Active transport is concentration-dependently saturable.
(§4) Caco-2 cells (1-2*10^5 cells/cm^2 area) are seeded on filter inserts (Costar transwell polycarbonate or PET filters, 0.4 μm pore size) and cultured (DMEM) for 10 to 25 days. Compounds are dissolved in appropriate solvent (like DMSO, 1-20 mM stock solutions). Stock solutions are diluted with HTP-4 buffer (128.13 mM NaCl, 5.36 mM KCl, 1 mM MgSO4, 1.8 mM CaCl2, 4.17 mM NaHCO3, 1.19 mM Na2HPO4×7H2O, 0.41 mM NaH2PO4×H2O, 15 mM HEPES, 20 mM glucose, pH 7.2) to prepare the transport solutions (typically 10 μM compound, final DMSO<=0.5%). The transport solution (TL) is applied to the apical or basolateral donor side for measuring A-B or B-A permeability (3 filter replicates), respectively. The receiver side contains HTP-4 buffer supplemented with 2% BSA. Samples are collected at the start and end of experiment from the donor and at various time intervals for up to 2 hours also from the receiver side for concentration measurement by LC-MS/MS or scintillation counting. Sampled receiver volumes are replaced with fresh receiver solution.
(§5) The apparent permeability coefficients (PEAB and PEBA) of selected compounds in the Caco-2 drug transport assay described above are listed in Table 9.
On the technique in general: Caco-2 cells form a polarised layer with tight junctions and transporters.

A short description of data set [5]: Metabolic stability with human hepatocytes. The format is in vitro ADME. The following applies: human hepatocyte suspension (typically cryopreserved), 1 μM test compound, six hours, scaled with well stirred model. The method, then: Assay for the Determination of Metabolic Stability with Human Hepatocytes
The metabolic degradation of the test compound is assayed in a human hepatocyte suspension. Human hepatocytes (typically cryopreserved) are incubated in an appropriate buffer system (e.g. Dulbecco's modified eagle medium plus 3.5 μg glucagon/500 mL, 2.5 mg insulin/500 mL and 3.75 mg/500 mL hydrocortison) containing 5% species serum. Following a (typically) 30 min preincubation in an incubator (37° C., 10% CO2), 5 μl of test compound solution (80 μM; from 2 mM stock solution in DMSO diluted 1:25 with medium) are added into 395 μl hepatocyte suspension (cell density in the range 0.25-5*10^6 cells/mL, typically 1*10^6 cells/mL; final concentration of test compound 1 μM, final DMSO concentration 0.05%). The cells are incubated for six hours (incubator, orbital shaker) and samples (25 μl) are taken at 0, 0.5, 1, 2, 4 and 6 hours. Samples are transferred into acetonitrile and pelleted by centrifugation (5 min) The supernatant is transferred to a new 96-deepwell plate, evaporated under nitrogen and resuspended. The decline of parent compound is analyzed by LC-MS/MS.
The intrinsic clearance CL_[…] is calculated as follows: CL_[…]=Dose/AUC=(C0/CD)/(AUD+clast/k)*1′000/60 (C0: initial concentration in the incubation [μM], CD: cell density of vital cells [10^6 cells/mL], AUD: area under the data [μM*h], clast: concentration of last data point [μM], k: slope of the regression line for parent decline [h^−1])
The calculated in vitro hepatic intrinsic clearance can be scaled up to the intrinsic in vivo hepatic clearance and used to predict hepatic in vivo blood clearance (CL) by the use of a liver model (well stirred model): CL_[…]_INVIVO [ml/min/kg]=(CL_[…] [μL/min/10^6 cells]*hepatocellularity [10^6 cells/g liver]*liver factor [g/kg bodyweight])/1′000 CL [ml/min/kg]=CL_[…]_INVIVO [ml/min/kg]*hepatic blood flow [ml/min/kg]/(CL_[…]_INVIVO [ml/min/kg]+hepatic blood flow [ml/min/kg]) Qh [%]=CL [ml/min/kg]/hepatic blood flow [ml/min/kg]) (Hepatocellularity, human: 120*10^6 cells/g liver; liver factor, human: 25.7 g/kg bodyweight; blood flow, human: 21 ml/(min*kg))

For data set [6], the target named is Human neutrophil elastase (Homo sapiens (Human), UniProt P08246). Briefly: Human Neutrophil Elastase Assay. In kind it is biochemical. The note with it: substrate MeOSuc-Ala-Ala-Pro-Val-AMC 250 μM, pH 7.5, room temperature.
Chain of Human neutrophil elastase (P08246 30-247): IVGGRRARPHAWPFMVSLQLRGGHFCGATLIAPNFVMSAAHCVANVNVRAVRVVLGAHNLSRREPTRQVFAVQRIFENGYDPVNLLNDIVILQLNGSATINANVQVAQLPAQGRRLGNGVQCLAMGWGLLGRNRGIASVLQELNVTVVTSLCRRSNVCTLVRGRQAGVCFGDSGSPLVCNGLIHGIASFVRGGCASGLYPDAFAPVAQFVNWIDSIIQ
Procedure: The following buffers were used: Compound buffer: 100 mM Tris, 500 mM NaCl, adjusted to pH 7.5; Assay buffer: 100 mM Tris, 500 mM NaCl, adjusted to pH 7.5, containing 0.01% BSA.
Assay conditions: Test compounds were prediluted in DMSO and subsequently in compound buffer (5% DMSO final). […] After inactivation of the enzyme, fluorescence intensities were measured at 380 nm excitation and 460 nm emission wavelengths.
Each plate contains wells with a high value control (DMSO+enzyme+substrate) and wells with a low value control (DMSO+inactivated enzyme+substrate). IC50 values were estimated using a sigmoidal concentration response curve with variable slope. Means of low values were taken as 0%, means of high values as 100%.
Data set [7] addresses neutrophil elastase in human plasma (Homo sapiens (Human), UniProt P08246). The data set is described as follows: Neutrophil elastase inhibitory activity in human plasma. In kind it is biochemical. The note with it: human plasma assay (zymosan-stimulated blood plasma), substrate 250 μM, pH 7.5.
Procedure: Assay for the Determination of Neutrophil Elastase Inhibitory Activity in Human Plasma
Citrated blood from human healthy donors is mixed with zymosan suspension and incubated at room temperature. This leads to the stimulation of neutrophils and the release of neutrophil elastase into the plasma. The stimulated blood is centrifuged to generate the neutrophil elastase enriched plasma.
Preparation of Zymosan Working Solution:
Various concentrations of the neutrophil elastase inhibitor are incubated with plasma. […] A dose response curve is generated to calculate the EC50 of the inhibitor.
The next data set addresses cytochrome P450 2C8 (Homo sapiens (Human), UniProt P10632). Briefly: Cytochrome P450 2C8 inhibition. The following applies: human liver microsomes, Amodiaquine deethylation, 37° C. The format is in vitro ADME. From the text:
Assay for Determination of Cytochrome P450 2C8 Inhibition

In another data set the test system is Caco-2 cells. The data set is described as follows: Drug transport across human Caco-2 cells. The format is in vitro ADME. The note with it: Caco-2 monolayers, pH 7.2, 37° C.; for PEAB: apical-to-basal; for PEBA: basal-to-apical.
Text: as §1, §2, §3, §4, §5

Chain of cytochrome P450 2C19 (P33261 whole entry): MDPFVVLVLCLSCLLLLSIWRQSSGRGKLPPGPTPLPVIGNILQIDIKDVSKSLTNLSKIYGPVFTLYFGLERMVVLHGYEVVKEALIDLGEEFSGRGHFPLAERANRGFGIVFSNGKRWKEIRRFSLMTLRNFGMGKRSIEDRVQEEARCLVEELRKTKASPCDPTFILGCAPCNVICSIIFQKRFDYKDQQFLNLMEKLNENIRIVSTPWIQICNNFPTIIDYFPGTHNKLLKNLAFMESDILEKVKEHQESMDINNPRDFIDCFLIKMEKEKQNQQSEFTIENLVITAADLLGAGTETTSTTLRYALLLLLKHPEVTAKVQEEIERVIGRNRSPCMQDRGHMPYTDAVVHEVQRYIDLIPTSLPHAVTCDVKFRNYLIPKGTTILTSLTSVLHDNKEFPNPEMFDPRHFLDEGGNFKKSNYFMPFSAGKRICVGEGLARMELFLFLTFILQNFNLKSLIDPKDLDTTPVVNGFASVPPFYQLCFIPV
Chain of neutrophil elastase in human plasma (P08246 30-247): as the sequence (P08246 30-247) above
Chain of cytochrome P450 2C9 (P11712 whole entry): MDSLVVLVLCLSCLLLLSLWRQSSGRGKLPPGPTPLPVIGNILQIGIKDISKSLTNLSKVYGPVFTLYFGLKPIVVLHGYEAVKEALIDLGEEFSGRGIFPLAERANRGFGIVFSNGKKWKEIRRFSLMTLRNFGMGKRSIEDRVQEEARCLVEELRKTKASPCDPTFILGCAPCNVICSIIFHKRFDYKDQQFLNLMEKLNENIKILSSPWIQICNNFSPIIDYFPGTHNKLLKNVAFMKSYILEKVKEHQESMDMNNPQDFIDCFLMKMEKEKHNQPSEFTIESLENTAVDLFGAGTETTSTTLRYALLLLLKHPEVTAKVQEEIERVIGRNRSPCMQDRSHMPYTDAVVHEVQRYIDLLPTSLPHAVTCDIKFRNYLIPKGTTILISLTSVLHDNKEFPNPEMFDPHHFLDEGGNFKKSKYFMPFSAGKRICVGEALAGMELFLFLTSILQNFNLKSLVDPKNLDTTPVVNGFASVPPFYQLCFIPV
Chain of cytochrome P450 2C8 (P10632 whole entry): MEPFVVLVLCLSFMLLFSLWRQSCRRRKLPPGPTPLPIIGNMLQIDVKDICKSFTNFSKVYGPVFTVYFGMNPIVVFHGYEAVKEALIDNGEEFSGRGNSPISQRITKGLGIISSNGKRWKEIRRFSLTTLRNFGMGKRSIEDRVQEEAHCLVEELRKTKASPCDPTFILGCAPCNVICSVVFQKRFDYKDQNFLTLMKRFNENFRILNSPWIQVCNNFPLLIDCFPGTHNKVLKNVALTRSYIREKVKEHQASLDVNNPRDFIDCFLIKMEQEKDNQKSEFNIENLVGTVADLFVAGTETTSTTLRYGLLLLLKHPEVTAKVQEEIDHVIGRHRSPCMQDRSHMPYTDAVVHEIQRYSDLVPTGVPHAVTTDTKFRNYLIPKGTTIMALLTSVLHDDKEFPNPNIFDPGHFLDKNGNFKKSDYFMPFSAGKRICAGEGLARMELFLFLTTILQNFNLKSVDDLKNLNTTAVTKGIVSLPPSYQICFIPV

`CN1C(=O)N(c2cccc(C(F)(F)F)c2)C2=C(C(=O)NCC2)[C@H]1c1ccc(C#N)cc1-c1cnn(C)c1` [Example 31A, 3-(1-Methyl-1H-pyrazol-4-yl)-4-[(4R)-3-methyl-2,5-dioxo-1-[3-(trifluoromethyl)-phenyl]-1H,2H,3H,4H,5H,6H,7H,8H-pyrido[4,3-d]pyrimidin-4-yl]benzonitrile]: the half-life at 1 μM in [1] is more than 2.17 h. The compound further displayed a solubility at 24 h in data set [2] of 11 µg/mL (≈ 21.7 µM). Also, the IC50 against cytochrome P450 2C9 is more than 50000 nM; on cytochrome P450 2C19 it was more than 50000 nM; in data set [6] it was less than 1 nM; in [7], less than 1 nM; on cytochrome P450 2C8, more than 50000 nM. This compound displayed a solubility in data set [3] not below 10 µg/mL. In addition, the Papp A→B at 10 µM in data set [4] was 12 ×10⁻⁶ cm/s. The Papp B→A at 10 µM in data set [4] was 100 ×10⁻⁶ cm/s. In data set [5], the CLhep predicted at 1 μM was 3 mL/min/kg.

`CN1C(=O)N(c2cccc(C(F)(F)F)c2)C2=C(C(=O)NCC2)C1c1ccc(C#N)cc1-c1cccnc1` (stereo not drawn) [Example 34, 4-{3-Methyl-2,5-dioxo-1-[3-(trifluoromethyl)phenyl]-1H,2H,3H,4H,5H,6H,7H,8H-pyrido[4,3-d]pyrimidin-4-yl}-3-(pyridin-3-yl)benzonitrile]: the IC50 is more than 50000 nM against cytochrome P450 2C9; more than 50000 nM against cytochrome P450 2C19; less than 1 nM in data set [6]; 1.6 nM in data set [7]; more than 50000 nM on cytochrome P450 2C8. Moreover, in data set [4], the Papp A→B at 10 µM stood at 11 ×10⁻⁶ cm/s. For the same compound, the Papp B→A at 10 µM in data set [4] stood at 79 ×10⁻⁶ cm/s. Also, the CLhep predicted at 1 μM in [5] was 4 mL/min/kg.

On to `N#Cc1ccc([C@H]2NC(=O)N(c3cccc(C(F)(F)F)c3)C3=C2C(=O)NCC3)cc1` [Example 1A, (R)-4-(2,5-Dioxo-1-(3-(trifluoromethyl)phenyl)-1,2,3,4,5,6,7,8-octahydropyrido[4,3-d]-pyrimidin-4-yl)benzonitrile], for which the half-life at 1 μM in data set [1] is more than 2.17 h. The same compound returned a solubility at 24 h in data set [2] of more than 100 µg/mL. Also, the IC50 was more than 50000 nM against cytochrome P450 2C9; more than 50000 nM on cytochrome P450 2C19; 3.1 nM in data set [6]; 3.4 nM in data set [7]; more than 50000 nM on cytochrome P450 2C8. The compound further yielded a solubility in data set [3] not below 10 µg/mL. Moreover, in [4], the Papp A→B at 10 µM worked out at 6.6 ×10⁻⁶ cm/s. For the same compound, in data set [4], the Papp B→A at 10 µM turned out to be 44 ×10⁻⁶ cm/s.

In turn, `CN1CCC2=C(C1=O)C(c1ccc(C#N)cc1-c1cccnc1)N(C)C(=O)N2c1cccc(C(F)(F)F)c1` (stereo not drawn) [Example 36.1] displayed an Aqueous solubility in data set [2] of 70 µg/mL. In the data set with Caco-2 cells, this compound yielded a PEAB of 26 ×10⁻⁶ cm/s. In addition, the PEBA in the data set with Caco-2 cells worked out at 110 ×10⁻⁶ cm/s. Moreover, the IC50 was 1.4 nM in [6] and 1.8 nM in [7].

`CN1CCC2=C(C1=O)C(c1ccc(C#N)cc1-c1ccncc1)N(C)C(=O)N2c1cccc(C(F)(F)F)c1` (stereo not drawn) [Example 36.2] came in with an Aqueous solubility in data set [2] of 70 µg/mL. The compound further yielded a PEAB in the data set on Caco-2 cells of 25 ×10⁻⁶ cm/s. Also, in the data set with Caco-2 cells, the PEBA was 150 ×10⁻⁶ cm/s. The IC50 is 1.3 nM in data set [6] and 1.8 nM in data set [7].

A word on the solubility: it is how much of the substance goes into solution per volume. Read a low solubility as little dissolved substance. In general, IC50 refers to the concentration at which inhibition is half-maximal. A word on the Aqueous solubility: it is the dissolved amount per volume that the medium holds. A higher Aqueous solubility goes with a readily soluble substance.
